The results in this text go back to US20260240842A1, “METHODS TO PREVENT THERAPY RESISTANCE IN MELANOMA VIA BLOCKING GENOMIC INSTABILITY” (THE REGENTS OF THE UNIVERSITY OF CALIFORNIA, priority 2022, published 2026).

In this assay the test system is acquired MAPKi-resistant sub-lines (n=9) isogenic to the human BRAF^V600MUT and NRAS^Q61MUT parental cell lines. The experiment in a line: Long-term clonogenic growth of acquired MAPKi-resistant sub-lines. As to conditions: in combination with MAPKi, lower range of the concentrations tested. It is filed as cell-based. How it is done:
FIGS. 4A-4U. DNA-PKi and/or PARPi co-treatment prevents acquired MAPKi-resistance in human melanoma cell lines. FIGS. 4A to 4O: Long-term clonogenic growth of isogenic parental and acquired MAPKi-resistant BRAF^V600MUT (4A to 4H) or NRAS^Q61MUT (4I to 4O) human melanoma cell lines showing acquired-resistant colonies to BRAFi+MEKi (PLX4032 at 0.5 mM, AZD6244 at 0.5 mM in 4A and 4G; PLX4032 at 0.25 mM, AZD6244 at 0.25 mM in 4D; PLX4032 at 1 mM, AZD6244 at 1 mM in 4B, 4C, 4E, 4F and 4H) or MEKi (trametinib at 0.005 mM in I and 0.01 mM in 4J and 4N; trametinib at 0.1 mM in 4K, 4M and 4O) and their suppression by indicated co-treatments with DNA-PKi (NU7026) and/or PARPi (ABT888) at indicated concentrations. Top, representative cultures; bottom, quantifications over n=4 fields (mean±SD). Data representative of 2 to 4 independent repeats. […] Representative results of two independent experiments; quantification of n=4 fields (mean±SD). […] Left, representative cultures; right, quantifications over n=4 fields (mean±SD). […] Top, representative cultures; bottom, quantifications over n=4 fields (mean±SD). […]

`C[C@]1(c2nc3c(C(N)=O)cccc3[nH]2)CCCN1` [ABT888, veliparib]: the “anti-clonogenic activity in acquired MAPKi-resistant sub-lines compared to isogenic parental lines” value was “no or reduced anti-clonogenic activity”.

As to `O=c1cc(N2CCOCC2)oc2c1ccc1ccccc12` [NU7026], the “anti-clonogenic activity in acquired MAPKi-resistant sub-lines compared to isogenic parental lines” value was “no or reduced anti-clonogenic activity”.
